“Also recorded” adds a separate entry of the source.
Experiments:
[1] = tested on: uterine weight of ovariectomized rats; assay: Ovariectomized rat uterine weight gain assay: estrogenicity; conditions: for Estrogenicity: increase in uterine weight of ovariectomized rats compared with control / Uterine weight compared with other groups (control and E1 -NH2): 25 μg/day, i.p., seven days; for Estrogenicity: increase in uterine weight of ovariectomized rats compared with control: n=5; for Uterine weight compared with other groups (control and E1 -NH2): Student-Newman-Keuls test
Method: Estrogenicity and antiestrogenicity were assessed using an ovariectomized rat uterine weight gain assay. […] Ovariectomized rats were maintained two weeks prior to treatment to allow their uteri to regress to basal size. Treatments were given by intraperitoneal injection in a 1% gelatin, 0.9% NaCl solution at a volume of 0.5 ml. Steroids were dissolved in ethanol to 1 mg/ml then further diluted into the injection solution to the desired concentration. All treatments were continued for seven days. At the termination of the experiments, animals were sacrificed by cervical dislocation under ether anesthesia. Body weight was taken, then uteri were excised, stripped of fat, and weighed to the nearest 0.1 mg.
(§1) Steroids were administered at 25 μg/day. For determination of antiestrogenicity, three treatment groups were established: vehicle control, estrone, and estrone E1 NH2.
A rat uterine weight gain assay was used to determine if E1 -NH2 had estrogenic or anti-estrogenic activity. […] Data are means ±SEM, n=5 for all groups. Control animals received vehicle only (0.9% NaCl, 1% gelatin, 500 μl,i.p. injection).

[2] = biological target: T1, rat uterine estrogen receptor (Rattus norvegicus, UniProt P06211); assay: Estrogen receptor binding, displacement of 3H-estradiol in rat uterine cytosol
T1 sequence (P06211 1-600): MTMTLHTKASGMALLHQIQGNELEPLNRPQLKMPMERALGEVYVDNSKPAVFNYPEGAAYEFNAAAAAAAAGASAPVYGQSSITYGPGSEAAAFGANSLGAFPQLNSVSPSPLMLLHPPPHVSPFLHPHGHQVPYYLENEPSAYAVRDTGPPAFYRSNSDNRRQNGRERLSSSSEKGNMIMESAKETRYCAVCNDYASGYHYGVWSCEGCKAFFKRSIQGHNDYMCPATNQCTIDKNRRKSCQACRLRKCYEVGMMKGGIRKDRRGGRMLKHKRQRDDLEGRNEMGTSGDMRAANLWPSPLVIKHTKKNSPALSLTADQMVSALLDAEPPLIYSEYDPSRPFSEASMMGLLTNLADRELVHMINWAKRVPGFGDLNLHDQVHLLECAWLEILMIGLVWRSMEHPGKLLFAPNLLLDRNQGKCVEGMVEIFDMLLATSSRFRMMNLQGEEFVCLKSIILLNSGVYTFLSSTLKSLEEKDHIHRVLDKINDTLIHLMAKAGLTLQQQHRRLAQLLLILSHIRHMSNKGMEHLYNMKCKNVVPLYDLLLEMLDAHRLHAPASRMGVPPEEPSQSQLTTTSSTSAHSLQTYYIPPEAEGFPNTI
Method: Specific binding was calculated as total binding minus nonspecific binding.

[3] = tested on: estrone-induced uterine weight gain in ovariectomized rats; assay: Ovariectomized rat uterine weight gain assay: anti-estrogenicity (block of estrone-induced uterine weight gain); format: in vivo
Method: Estrogenicity and antiestrogenicity were assessed using an ovariectomized rat uterine weight gain assay. […] Ovariectomized rats were maintained two weeks prior to treatment to allow their uteri to regress to basal size. Treatments were given by intraperitoneal injection in a 1% gelatin, 0.9% NaCl solution at a volume of 0.5 ml. Steroids were dissolved in ethanol to 1 mg/ml then further diluted into the injection solution to the desired concentration. All treatments were continued for seven days. At the termination of the experiments, animals were sacrificed by cervical dislocation under ether anesthesia. Body weight was taken, then uteri were excised, stripped of fat, and weighed to the nearest 0.1 mg. In vivo, estradiol and estrone can induce uterine weight gain in female ovariectomized rats.
as §1
Antiestrogenicity was assessed as the ability of the compound to block estrone-induced uterine weight gain in ovariectomized rats. […] Control animals received vehicle only (0.9% NaCl, 1% gelatin, 500 μl. i.p. injection).

[4] = tested on: nitrosomethyl urea-induced tumor cells in castrated rats; conditions: cited from earlier work

C[C@]12CC[C@@H]3c4ccc(N)cc4CC[C@H]3[C@@H]1CCC2=O [E1 -NH2, estra-1,3,5(10)-triene-17-one, 3-amine]
Estrogenicity: increase in uterine weight of ovariectomized rats compared with control [1]: did not cause a significant increase in uterine weight | Estrogenicity (conclusion) ([1]; FIGS. 4 and 5): neither estrogenic nor anti-estrogenic | Competition for / interaction with estrogen receptor ([2]; rat uterine cytosol, 0.01, 0.1 and 1 μM competitor): did not compete for estrogen receptor at the same level as estrone; also recorded: does not interact to any great extent with an estrogen receptor | inhibition at 1 µM ([2]; read-out: Displacement of specific 3H-estradiol binding): 60% | Anti-estrogenicity: block of estrone-induced uterine growth ([3]; E1 -NH2 100 μg/day with estrone 2 μg/day, i.p., seven days, n=5): did not block estrone-induced uterine growth | Anti-estrogenicity (conclusion) ([3]; FIGS. 4 and 5): neither estrogenic nor anti-estrogenic

C[C@]12CC[C@@H]3c4ccc(O)cc4CC[C@H]3[C@@H]1CC[C@@H]2O [estradiol, estradiol-17β]
Estrogenicity: increase in uterine weight of ovariectomized rats compared with control [1]: significantly increased uterine weight above control levels | Uterine weight compared with other groups (control and E1 -NH2) [1]: significantly (p≤0.05) higher than other groups

C[C@]12CC[C@@H]3c4ccc(O)cc4CC[C@H]3[C@@H]1CCC2=O [estrone]
Estrogenicity: increase in uterine weight of ovariectomized rats compared with control [1]: significantly increased uterine weight above control levels | Uterine weight compared with other groups (control and E1 -NH2) [1]: significantly (p≤0.05) higher than other groups

estrone sulfate
Stimulation of tumor cell growth [4]: stimulate growth of nitrosomethyl urea-induced tumor cells in castrated rats
